Columns and labels:
SCC7 tumor [1] = assay: In vivo and ex vivo NIR fluorescence bio-distribution (IVIS); set-up: species or system mice
Experimental: The same group of mice was investigated as to NIR fluorescence signals by an in vivo imaging system (IVIS).
The free ICG solution (2 mg/kg) was injected into other mice as a control group for IVIS imaging. […] Gradual reduction of the signals means that free ICG molecules were quickly discharged from the bodies of the mice (FIG. 8b).
In-vivo bio-distribution of the PB-BSA-ICG nanoparticles and free ICG was analyzed by optical fluorescence imaging. […] Fluorescence signals in the mice subjected to injection of free ICG (2 mg/kg) were also recorded at time intervals similar to those set forth above.
The mice were sacrificed 24 hours after injection, and fluorescence signals (liver, lung, spleen, heart, and kidney) from resected tumors and major organs were measured.

SCC7 cells [2] = assay: Intracellular singlet oxygen generation with H2DCF-DA probe; assay type: cell-based; conditions: SCC7, after 808 nm laser irradiation
Experimental: Further, free ICG has photodynamic properties and can generate singlet oxygen (^1O2) when exposed to an 808 nm NIR laser beam. Generation of intracellular singlet oxygen (^1O2) was analyzed using 2′,7′-dichlorodihydrofluorescein diacetate (H2DCF-DA) dye as a reactive oxygen species (ROS) probe.

[3] = In vitro laser induced phototherapy, cell viability; assay type: cell-based; conditions: mouse, SCC7 cells, PB 80 μg/ml, ICG 10 μg/ml, read-out: cell viability without laser treatment
Experimental: (§1) Next, the cells were completely cleaned and fresh medium was added to each of the wells. Next, the cells were irradiated with an 808 nm NIR laser beam for 5 minutes.
(§2) After laser irradiation, the cells were further cultured for 12 hours, and cell viability was measured by WST-1 analysis.

SCC7 cells [4] = assay: as above; assay type: cell-based; conditions: Mus musculus, SCC-7, light or radiation study, 5 min, 808 nm, 1 W/cm^2, 5 minutes, PB 80 μg/ml, ICG 10 μg/ml, read-out: cell viability after NIR laser irradiation
Experimental: as §1, §2

SCC7 tumor [5] = assay type: in vivo
Experimental: 24 hours after injection, tumor sites of all of the mice were irradiated with a continuous wave NIR laser beam (808 nm, 1 W/cm^2, 10 minutes) for phototherapy, and real-time temperature increase during laser irradiation was monitored by an IR thermal camera (FIGS. 10a and 10b).
In-vivo phototherapy: The tumor-xenograft mice were produced in the same manner as described above. The mice, in which tumors had grown to a desired volume (about 100 mm^3), were divided into four groups, that is, a saline solution group, a free ICG group, a PB-BSA nanoparticle group, and PB-BSA-ICG nanoparticle group. According to the groups, each sample was injected into a vein of the corresponding mouse (administration of 2 mg/kg of ICG, administration of 20 mg/kg of PB).
24 hours after injection, the tumor of each of the mice was exposed to an 808 nm NIR laser beam (1 W/cm^2) for 10 minutes, real-time temperature change of the tumor region during laser treatment was monitored by an IR thermal imaging system. The size of the tumor after treatment was measured at a specific time point using a digital caliper.

[6] = Photothermal properties of solutions under 808 nm NIR laser; conditions: 1 W/cm^2, ICG 10 μg/ml
Experimental: 500 μl of each of the solutions was placed in a centrifuge tube and irradiated with an NIR laser beam at a power density of 1 W/cm^2 and temperature change of the solutions receiving the laser beam was measured in real time by an infrared (IR) thermal imaging system (FLIR SC-300, FLIR Systems Inc., Danderyd, Sweden).

[7] = 808 nm, 1 W/cm^2, 10 minutes, 24 hours after injection
[8] = repeated laser irradiation, 3 minutes per cycle

CC1(C)C(/C=C/C=C/C=C/C=C2\N(CCCCS(=O)(=O)O)c3ccc4ccccc4c3C2(C)C)=[N+](CCCCS(=O)(=O)[O-])c2ccc3ccccc3c21 [free ICG, Indocyanine green]
in vivo NIR fluorescence signal distribution (SCC7 tumor [1]; 3 hours after injection, 2 mg/kg): strong signals at liver sites
ex vivo fluorescence signals of livers (SCC7 tumor [1]; 24 hours after injection): significantly high fluorescence signals
ex vivo fluorescence signals of tumors (SCC7 tumor [1]; 24 hours after injection): low signals
intracellular ^1O2 generation (green fluorescence of H2DCF-DA) (SCC7 cells [2]): intracellular green fluorescence signals were observed
viability at 24 h, 10 μg/ml [3]: ~100%
viability at 10 µg/mL (SCC7 cells [4]): 55%
average temperature increase of tumor (SCC7 tumor [5]; [7]): about 6 °C
final tumor temperature (SCC7 tumor [5]; [7]): 42 °C
tumor response after laser treatment (SCC7 tumor [5]; monitored for 14 days, ICG 2 mg/kg, PB 20 mg/kg): did not exhibit meaningful tumor regression
temperature increase ([6]; laser irradiation for 5 minutes, 808 nm, PB 80 μg/ml): 10 °C
temperature increase, first cycle [6, 8]: about 10 °C
temperature increase, second cycle [6, 8]: about 6 °C
temperature increase, third cycle [6, 8]: 2.5 °C

— patent US10973933B2, “Nanoparticles for diagnosis and treatment of tumors” (GWANGJU INSTITUTE OF SCIENCE AND TECHNOLOGY, priority 2015, dated 2021)
